What follows are molecules tested against [35S]-TBPS binding, rat brain cortical membranes (assay: Steroid inhibition of [35S]-TBPS binding). Details: 3 nM [35S]-TBPS, in the presence of 5 mM GABA.
Outline: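 Rat cortical P2 membranes incubated 90 min at room temperature with 3 nM [35S]-TBPS, […] and test compound (0.5% DMSO final) in NaCl/Na–K phosphate pH 7.4; nonspecific binding with […]. Filter-bound radioactivity counted; IC50 and Imax from nonlinear fits, mean ± SEM.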
`CCOC[C@@]1(O)CC[C@H]2[C@H](CC[C@@H]3[C@@H]2CC[C@]2(C)[C@@H]([C@@H](C)Cn4ccc(C#N)n4)CC[C@@H]32)C1` [Example 288, 1-((R)-2-((3R,5R,8R,9R,10S,13S,14S,17R)-3-(ethoxymethyl)-3-hydroxy-13-methylhexadecahydro-1H-cyclopenta[a]phenanthren-17-yl)propyl)-1H-pyrazole-3-carbonitrile] gave an IC50 of under 100 nM.
With `CCOC[C@@]1(O)CC[C@H]2[C@H](CC[C@@H]3[C@@H]2CC[C@]2(C)[C@@H]([C@H](C)Cn4nnc(C)n4)CC[C@@H]32)C1` [Example 289, (3R,5R,8R,9R,10S,13S,14S,17R)-3-(ethoxymethyl)-13-methyl-17-((S)-1-(5-methyl-2H-tetrazol-2-yl)propan-2-yl)hexadecahydro-1H-cyclopenta[a]phenanthren-3-ol] the IC50 was under 100 nM.
`CCOC[C@@]1(O)CC[C@H]2[C@H](CC[C@@H]3[C@@H]2CC[C@]2(C)[C@@H]([C@@H](C)Cn4nnc(C)n4)CC[C@@H]32)C1` [Example 290, (3R,5R,8R,9R,10S,13S,14S,17R)-3-(ethoxymethyl)-13-methyl-17-((R)-1-(5-methyl-2H-tetrazol-2-yl)propan-2-yl)hexadecahydro-1H-cyclopenta[a]phenanthren-3-ol] gave an IC50 of under 100 nM.
For `COC[C@@]1(O)CC[C@H]2[C@@H](CC[C@@H]3[C@@H]2CC[C@]2(C)[C@@H](CCn4nnc(C)n4)CC[C@@H]32)C1` [Example 295, (3R,5S,8R,9R,10S,13R,14S,17R)-3-(methoxymethyl)-13-methyl-17-(2-(5-methyl-2H-tetrazol-2-yl)ethyl)hexadecahydro-1H-cyclopenta[a]phenanthren-3-ol], the IC50 was under 100 nM.
In the case of `COC[C@@]1(O)CC[C@H]2[C@@H](CC[C@@H]3[C@@H]2CC[C@]2(C)[C@@H](CCn4nnnc4C)CC[C@@H]32)C1` [Example 296, (3R,5S,8R,9R,10S,13R,14S,17R)-3-(methoxymethyl)-13-methyl-17-(2-(5-methyl-1H-tetrazol-1-yl)ethyl)hexadecahydro-1H-cyclopenta[a]phenanthren-3-ol], the IC50 is reported as under 100 nM.
`COC[C@@]1(O)CC[C@H]2[C@@H](CC[C@@H]3[C@@H]2CC[C@]2(C)[C@@H](CCn4nccn4)CC[C@@H]32)C1` [Example 297, (3R,5S,8R,9R,10S,13R,14S,17R)-17-(2-(2H-1,2,3-triazol-2-yl)ethyl)-3-(methoxymethyl)-13-methylhexadecahydro-1H-cyclopenta[a]phenanthren-3-ol] showed an IC50 of under 100 nM.
Work on `COC[C@@]1(O)CC[C@H]2[C@@H](CC[C@@H]3[C@@H]2CC[C@]2(C)[C@@H](CCn4ccnn4)CC[C@@H]32)C1` [Example 298, (3R,5S,8R,9R,10S,13R,14S,17R)-17-(2-(1H-1,2,3-triazol-1-yl)ethyl)-3-(methoxymethyl)-13-methylhexadecahydro-1H-cyclopenta[a]phenanthren-3-ol] yielded an IC50 of under 100 nM.
With `CC(C)C[C@@]1(O)CC[C@H]2[C@H](CC[C@@H]3[C@@H]2CC[C@]2(C)[C@@H]([C@H](C)Cn4cc(C#N)cn4)CC[C@@H]32)C1` [Example 300, 1-((S)-2-((3S,5R,8R,9R,10S,13S,14S,17R)-3-hydroxy-3-isobutyl-13-methylhexadecahydro-1H-cyclopenta[a]phenanthren-17-yl)propyl)-1H-pyrazole-4-carbonitrile] the IC50 was under 100 nM.
`CCC[C@@]1(O)CC[C@@]2(CC)[C@H](CC[C@H]3[C@@H]4CC[C@H]([C@@H](C)Cn5cc(C#N)cn5)[C@@]4(C)CC[C@@H]32)C1` [Example 301, 1-((R)-2-((3R,5R,8S,9S,10S,13S,14S,17R)-10-ethyl-3-hydroxy-13-methyl-3-propylhexadecahydro-1H-cyclopenta[a]phenanthren-17-yl)propyl)-1H-pyrazole-4-carbonitrile] showed an IC50 of under 100 nM.
